Source: patent publication US20230139171A1 (SITA Information Networking Computing UK Limited, priority 2019, published 2023)

How the values were obtained:
Format in all cases: cell-based
[1] = target: T1, human TLR8 (Homo sapiens, UniProt Q9NR97); experiment: TLR8 inhibition reporter assay (HEK-Blue cells, SEAP reporter, R848 stimulation); conditions: HEK-Blue cells overexpressing human TLR8, SEAP reporter, R848 15.9 μM; read-out: TLR8 IC50
T1 construct: host or cells: HEK-Blue cells
T1 sequence (Q9NR97 27-1041): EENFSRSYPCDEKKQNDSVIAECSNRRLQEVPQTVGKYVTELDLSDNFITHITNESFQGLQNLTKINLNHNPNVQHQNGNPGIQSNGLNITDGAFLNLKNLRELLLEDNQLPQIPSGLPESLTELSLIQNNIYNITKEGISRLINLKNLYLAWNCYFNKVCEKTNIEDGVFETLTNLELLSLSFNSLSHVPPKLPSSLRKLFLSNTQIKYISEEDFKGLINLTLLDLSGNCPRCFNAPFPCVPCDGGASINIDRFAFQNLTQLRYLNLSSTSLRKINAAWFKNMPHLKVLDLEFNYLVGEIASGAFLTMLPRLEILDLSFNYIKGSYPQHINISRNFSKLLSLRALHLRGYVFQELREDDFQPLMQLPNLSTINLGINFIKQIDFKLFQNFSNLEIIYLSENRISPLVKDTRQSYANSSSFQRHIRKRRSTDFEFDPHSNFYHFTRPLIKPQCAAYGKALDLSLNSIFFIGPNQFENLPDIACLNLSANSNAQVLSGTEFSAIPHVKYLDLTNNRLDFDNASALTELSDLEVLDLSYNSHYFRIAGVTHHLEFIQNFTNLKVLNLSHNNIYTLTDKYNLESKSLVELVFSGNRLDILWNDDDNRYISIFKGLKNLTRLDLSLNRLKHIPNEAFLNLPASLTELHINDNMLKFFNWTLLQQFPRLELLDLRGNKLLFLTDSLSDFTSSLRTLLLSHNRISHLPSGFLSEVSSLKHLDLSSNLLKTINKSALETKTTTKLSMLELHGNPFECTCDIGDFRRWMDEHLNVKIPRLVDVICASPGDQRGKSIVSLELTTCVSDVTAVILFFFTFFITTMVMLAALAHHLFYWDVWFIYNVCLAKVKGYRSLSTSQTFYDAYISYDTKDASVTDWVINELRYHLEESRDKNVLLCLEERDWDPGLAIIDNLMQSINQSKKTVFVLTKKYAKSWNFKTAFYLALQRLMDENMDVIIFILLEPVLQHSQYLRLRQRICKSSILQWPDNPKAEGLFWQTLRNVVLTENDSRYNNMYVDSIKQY
Summary of the method: (§1)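 Agonists used: gardiquimod 7.5 μM (TLR7), R848 15.9 μM (TLR8), ODN2006 5 nM (TLR9), added after 30 min room-temperature compound pre-treatment (0.05 nM–50 μM) of receptor-overexpressing HEK-Blue cells. SEAP reporter (NF-κB/AP-1 driven) read after 22 h at 37 °C; inhibition scaled between agonist+DMSO and reference-inhibitor wells.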

[2] = target: T2, human TLR7 (Homo sapiens, UniProt Q9NYK1); experiment: TLR7 inhibition reporter assay (HEK-Blue cells, SEAP reporter, gardiquimod stimulation); conditions: HEK-Blue cells overexpressing human TLR7, SEAP reporter, gardiquimod 7.5 μM; read-out: TLR7 IC50
T2 construct: host or cells: HEK-Blue cells
T2 sequence (Q9NYK1 27-1049): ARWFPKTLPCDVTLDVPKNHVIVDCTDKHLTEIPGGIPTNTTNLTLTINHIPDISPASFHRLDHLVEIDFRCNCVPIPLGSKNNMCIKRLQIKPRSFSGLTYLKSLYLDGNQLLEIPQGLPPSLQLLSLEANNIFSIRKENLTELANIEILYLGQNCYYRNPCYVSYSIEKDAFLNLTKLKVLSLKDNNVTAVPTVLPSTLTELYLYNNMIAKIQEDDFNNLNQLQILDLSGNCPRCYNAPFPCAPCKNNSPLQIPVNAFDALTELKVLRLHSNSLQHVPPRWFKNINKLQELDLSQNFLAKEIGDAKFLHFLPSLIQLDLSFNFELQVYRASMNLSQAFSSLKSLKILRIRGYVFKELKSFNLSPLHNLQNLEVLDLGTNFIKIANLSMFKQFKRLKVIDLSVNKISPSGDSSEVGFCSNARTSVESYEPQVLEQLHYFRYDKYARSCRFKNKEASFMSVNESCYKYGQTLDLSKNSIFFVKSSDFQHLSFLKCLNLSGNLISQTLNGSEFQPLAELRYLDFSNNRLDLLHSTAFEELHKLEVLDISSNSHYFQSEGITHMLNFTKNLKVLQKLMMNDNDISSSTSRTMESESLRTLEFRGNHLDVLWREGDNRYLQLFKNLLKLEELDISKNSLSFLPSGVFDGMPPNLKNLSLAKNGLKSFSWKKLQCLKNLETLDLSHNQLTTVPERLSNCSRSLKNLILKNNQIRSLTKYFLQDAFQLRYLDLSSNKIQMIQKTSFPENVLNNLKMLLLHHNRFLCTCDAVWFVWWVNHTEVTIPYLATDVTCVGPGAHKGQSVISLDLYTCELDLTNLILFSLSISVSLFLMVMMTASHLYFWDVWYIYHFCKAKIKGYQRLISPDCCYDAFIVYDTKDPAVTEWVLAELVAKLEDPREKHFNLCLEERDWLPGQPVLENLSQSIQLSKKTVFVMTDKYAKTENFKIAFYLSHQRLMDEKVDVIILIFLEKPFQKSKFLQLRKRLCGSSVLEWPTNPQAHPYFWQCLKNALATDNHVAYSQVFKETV
Summary of the method: as §1

[3] = target: T3, human TLR9 (Homo sapiens, UniProt Q9NR96); experiment: TLR9 inhibition reporter assay (HEK-Blue cells, SEAP reporter, ODN2006 stimulation); conditions: HEK-Blue cells overexpressing human TLR9, SEAP reporter, ODN2006 5 nM
T3 construct: host or cells: HEK-Blue cells
T3 sequence (Q9NR96 26-1032): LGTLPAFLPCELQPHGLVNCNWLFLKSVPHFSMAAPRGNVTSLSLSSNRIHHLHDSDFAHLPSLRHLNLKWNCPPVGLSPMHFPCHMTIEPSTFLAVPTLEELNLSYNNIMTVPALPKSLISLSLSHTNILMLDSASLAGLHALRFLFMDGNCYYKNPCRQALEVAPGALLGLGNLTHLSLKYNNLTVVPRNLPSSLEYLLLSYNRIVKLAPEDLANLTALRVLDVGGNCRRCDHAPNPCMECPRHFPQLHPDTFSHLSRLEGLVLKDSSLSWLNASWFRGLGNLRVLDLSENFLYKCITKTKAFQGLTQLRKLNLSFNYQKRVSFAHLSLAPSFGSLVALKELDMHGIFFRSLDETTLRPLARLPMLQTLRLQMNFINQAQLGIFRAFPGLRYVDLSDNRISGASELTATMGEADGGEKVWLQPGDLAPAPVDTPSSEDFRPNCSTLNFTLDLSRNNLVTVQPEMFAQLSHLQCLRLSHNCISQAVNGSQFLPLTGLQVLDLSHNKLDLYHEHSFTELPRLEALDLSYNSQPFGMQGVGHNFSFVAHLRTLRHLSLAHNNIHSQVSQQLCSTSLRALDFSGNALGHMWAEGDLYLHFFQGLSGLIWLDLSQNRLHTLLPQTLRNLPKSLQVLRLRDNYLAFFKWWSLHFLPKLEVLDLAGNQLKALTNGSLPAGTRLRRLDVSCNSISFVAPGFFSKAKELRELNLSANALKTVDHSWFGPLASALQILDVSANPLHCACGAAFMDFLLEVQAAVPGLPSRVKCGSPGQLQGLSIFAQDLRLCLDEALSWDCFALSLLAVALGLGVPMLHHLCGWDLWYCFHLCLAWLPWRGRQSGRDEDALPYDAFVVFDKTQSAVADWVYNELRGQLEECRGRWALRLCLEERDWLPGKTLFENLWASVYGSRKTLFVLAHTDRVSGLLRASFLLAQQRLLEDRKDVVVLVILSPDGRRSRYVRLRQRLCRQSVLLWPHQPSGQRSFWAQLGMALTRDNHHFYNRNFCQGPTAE
Summary of the method: as §1

| IC50 [1] [nM] | IC50 [2] [nM] | IC50 [3] [nM] | SMILES |
| --- | --- | --- | --- |
| 2.26 | 8.43 | 17100 | Cc1c(-c2[nH]c3sc(C4CCC(N(C)C(C)C)CC4)nc3c2C(C)C)cn(C)c(=O)c1C (single isomer, unassigned) [Example 261, 5-(6-isopropyl-2-(4-(isopropyl(methyl)amino)cyclohexyl)-4H-pyrrolo[3,2-d]thiazol-5-yl)-1,3,4-trimethylpyridin-2(1H)-one] |
| 17.5 | 23.8 | 18300 | Cc1c(-c2[nH]c3sc(C4CCC(N(C)C(C)C)CC4)nc3c2C(C)C)cn(C)c(=O)c1C (single isomer, unassigned) [Example 262, 5-(6-isopropyl-2-(4-(isopropyl(methyl)amino)cyclohexyl)-4H-pyrrolo[3,2-d]thiazol-5-yl)-1,3,4-trimethylpyridin-2(1H)-one] |
| 4.48 | 4.74 | 18100 | Cc1c(-c2[nH]c3sc(C4CCC(N5CC(O)C5)CC4)nc3c2C(C)C)cn(C)c(=O)c1C (single isomer, unassigned) [Example 263, 5-(2-(4-(3-hydroxyazetidin-1-yl)cyclohexyl)-6-isopropyl-4H-pyrrolo[3,2-d]thiazol-5-yl)-1,3,4-trimethylpyridin-2(1H)-one] |
| 22.9 | 26.8 | 22000 | Cc1c(-c2[nH]c3sc(C4CCC(N5CC(O)C5)CC4)nc3c2C(C)C)cn(C)c(=O)c1C (single isomer, unassigned) [Example 264, 5-(2-(4-(3-hydroxyazetidin-1-yl)cyclohexyl)-6-isopropyl-4H-pyrrolo[3,2-d]thiazol-5-yl)-1,3,4-trimethylpyridin-2(1H)-one] |
| 3.29 | 14 | 47700 | Cc1c(-c2[nH]c3sc(C4CCC(N5CC(F)C5)CC4)nc3c2C(C)C)cn(C)c(=O)c1C (single isomer, unassigned) [Example 265, 5-(2-(4-(3-fluoroazetidin-1-yl)cyclohexyl)-6-isopropyl-4H-pyrrolo[3,2-d]thiazol-5-yl)-1,3,4-trimethylpyridin-2(1H)-one] |
| 60.2 | 119 | > 50000 | Cc1c(-c2[nH]c3sc(C4CCC(N5CC(F)C5)CC4)nc3c2C(C)C)cn(C)c(=O)c1C (single isomer, unassigned) [Example 266, 5-(2-(4-(3-fluoroazetidin-1-yl)cyclohexyl)-6-isopropyl-4H-pyrrolo[3,2-d]thiazol-5-yl)-1,3,4-trimethylpyridin-2(1H)-one] |

Further lines, the compound ahead of its results:

| SMILES | IC50 [1] [nM] | IC50 [2] [nM] | IC50 [3] [nM] |
| --- | --- | --- | --- |
| Cc1c(-c2[nH]c3sc(C4CCC(N5CCNC(=O)C5)CC4)nc3c2C(C)C)cn(C)c(=O)c1C (single isomer, unassigned) [Example 259, 4-(4-(6-isopropyl-5-(1,4,5-trimethyl-6-oxo-1,6-dihydropyridin-3-yl)-4H-pyrrolo[3,2-d]thiazol-2-yl)cyclohexyl)piperazin-2-one] | 13.8 | 23.5 | > 50000 |
| Cc1c(-c2[nH]c3sc(C4CCC(N5CCNC(=O)C5)CC4)nc3c2C(C)C)cn(C)c(=O)c1C (single isomer, unassigned) [Example 260, 4-(4-(6-isopropyl-5-(1,4,5-trimethyl-6-oxo-1,6-dihydropyridin-3-yl)-4H-pyrrolo[3,2-d]thiazol-2-yl)cyclohexyl)piperazin-2-one] | 138 | 170 | > 50000 |
| Cc1c(-c2[nH]c3sc(C4CCC(N5CC(O)(C(F)(F)F)C5)CC4)nc3c2C(C)C)cn(C)c(=O)c1C (single isomer, unassigned) [Example 267, 5-(2-(4-(3-hydroxy-3-(trifluoromethyl)azetidin-1-yl)cyclohexyl)-6-isopropyl-4H-pyrrolo[3,2-d]thiazol-5-yl)-1,3,4-trimethylpyridin-2(1H)-one] | 7.16 | 24.3 | > 50000 |
| Cc1c(-c2[nH]c3sc(C4CCC(N5CC(O)(C(F)(F)F)C5)CC4)nc3c2C(C)C)cn(C)c(=O)c1C (single isomer, unassigned) [Example 268, 5-(2-(4-(3-hydroxy-3-(trifluoromethyl)azetidin-1-yl)cyclohexyl)-6-isopropyl-4H-pyrrolo[3,2-d]thiazol-5-yl)-1,3,4-trimethylpyridin-2(1H)-one] | 65.1 | 41.1 | > 50000 |
| CCc1c(-c2cc(OC)c3ncnn3c2)[nH]c2sc(C3CCC(N4CC5(COC5)C4)CC3)nc12 (single isomer, unassigned) [Example 269, 6-(4-(6-ethyl-5-(8-methoxy-[1,2,4]triazolo[1,5-a]pyridin-6-yl)-4H-pyrrolo[3,2-d]thiazol-2-yl)cyclohexyl)-2-oxa-6-azaspiro[3.3]heptane] | 2.55 | 4.31 | 6280 |
